Laboratory results taken from PMC10943693, “Evaluation of binding mechanism of dietary phytochemical, capsaicin, with human transferrin: targeting neurodegenerative diseases therapeutics” (Frontiers in Pharmacology, 2024).

Target: T1, Human transferrin (htf) (Homo sapiens, UniProt P02787)
T1 construct: gene TF; commercial protein from Sigma Aldrich
Assay: intrinsic fluorescence quenching (excitation […] nm), modified Stern-Volmer plot
Assay type: binding
Conditions: 4 µM htf, 0-6 µM capsaicin; inner filter corrected; double-log

T1 sequence (P02787 20-698): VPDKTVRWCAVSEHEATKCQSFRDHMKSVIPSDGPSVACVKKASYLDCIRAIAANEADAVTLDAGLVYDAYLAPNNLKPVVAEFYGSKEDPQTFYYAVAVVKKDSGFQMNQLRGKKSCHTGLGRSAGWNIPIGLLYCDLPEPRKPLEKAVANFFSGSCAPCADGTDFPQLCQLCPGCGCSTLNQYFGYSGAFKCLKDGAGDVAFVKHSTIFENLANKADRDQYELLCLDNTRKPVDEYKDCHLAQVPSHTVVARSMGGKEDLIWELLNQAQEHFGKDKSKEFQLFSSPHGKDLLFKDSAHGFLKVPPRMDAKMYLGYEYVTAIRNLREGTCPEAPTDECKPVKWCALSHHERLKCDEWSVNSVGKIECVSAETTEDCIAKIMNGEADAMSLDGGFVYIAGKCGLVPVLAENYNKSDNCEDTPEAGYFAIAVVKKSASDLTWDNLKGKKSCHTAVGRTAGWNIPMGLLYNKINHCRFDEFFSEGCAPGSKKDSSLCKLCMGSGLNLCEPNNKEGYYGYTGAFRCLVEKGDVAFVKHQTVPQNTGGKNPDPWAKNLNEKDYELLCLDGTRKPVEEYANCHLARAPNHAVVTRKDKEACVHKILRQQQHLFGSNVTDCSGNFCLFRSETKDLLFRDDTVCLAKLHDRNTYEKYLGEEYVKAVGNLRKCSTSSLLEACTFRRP

COc1cc(CNC(=O)CCCC/C=C/C(C)C)ccc1O [capsaicin, 8-methyl-N-vanillyl-6-nonenamide]
K: 3.99e+06 M⁻¹
